Assay results: publication PMC11628400 (Nature Cell Biology, 2024)

What was measured:
NAT10 [1] = target: T1, NAT10 (Homo sapiens, UniProt Q9H0A0); assay: DARTS in MOLM13 lysate; assay type: cell-based
T1 sequence (Q9H0A0 1-1025): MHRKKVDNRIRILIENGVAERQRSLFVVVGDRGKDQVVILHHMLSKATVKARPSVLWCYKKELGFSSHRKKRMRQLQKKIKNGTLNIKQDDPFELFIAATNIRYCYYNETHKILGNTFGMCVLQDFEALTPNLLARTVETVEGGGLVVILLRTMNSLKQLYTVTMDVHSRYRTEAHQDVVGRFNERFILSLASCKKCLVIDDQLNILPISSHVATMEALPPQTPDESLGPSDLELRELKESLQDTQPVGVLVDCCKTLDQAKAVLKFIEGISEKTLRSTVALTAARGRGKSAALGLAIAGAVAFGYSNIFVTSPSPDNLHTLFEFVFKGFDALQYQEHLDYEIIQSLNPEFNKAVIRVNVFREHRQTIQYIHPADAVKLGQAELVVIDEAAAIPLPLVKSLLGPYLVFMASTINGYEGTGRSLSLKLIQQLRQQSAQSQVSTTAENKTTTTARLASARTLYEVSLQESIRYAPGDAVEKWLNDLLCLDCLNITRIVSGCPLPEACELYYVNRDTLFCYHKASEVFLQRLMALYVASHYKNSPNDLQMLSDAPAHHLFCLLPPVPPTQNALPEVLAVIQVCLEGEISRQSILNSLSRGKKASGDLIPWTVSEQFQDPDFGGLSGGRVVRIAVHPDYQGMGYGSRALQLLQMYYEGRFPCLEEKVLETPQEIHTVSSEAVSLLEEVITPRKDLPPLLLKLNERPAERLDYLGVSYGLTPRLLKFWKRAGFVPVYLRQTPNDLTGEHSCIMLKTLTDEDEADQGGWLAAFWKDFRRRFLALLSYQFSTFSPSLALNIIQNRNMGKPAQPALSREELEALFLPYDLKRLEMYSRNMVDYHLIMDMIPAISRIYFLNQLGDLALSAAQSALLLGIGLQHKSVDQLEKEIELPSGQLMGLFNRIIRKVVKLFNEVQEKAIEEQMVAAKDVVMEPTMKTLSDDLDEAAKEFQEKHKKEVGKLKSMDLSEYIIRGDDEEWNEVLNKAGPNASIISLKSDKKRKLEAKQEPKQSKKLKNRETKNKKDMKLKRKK

NAT10 [2] = target: T1, NAT10; assay: DARTS; assay type: cell-based

| SMILES | DARTS in MOLM13 lysate; CETSA in MonoMac6 cells (NAT10 [1]) | DARTS (protection from pronase digestion) in MOLM13 lysate (NAT10 [2]) |
| --- | --- | --- |
| N#Cc1ccc(-c2csc(NN=C3CCCC3)n2)cc1 [Remodelin] | Thermal shift curves of NAT10 from CETSA assays in MonoMac6 pretreated with fludarabine (F-ara-A), Remodelin or dimethylsulfoxide (DMSO) | – |
| Nc1nc(F)nc2c1ncn2[C@@H]1O[C@H](COP(=O)(O)OP(=O)(O)OP(=O)(O)O)[C@@H](O)[C@@H]1O [F-ara-ATP, fludarabine triphosphate] | – | The binding of fludarabine and F-ara-ATP with NAT10 were confirmed by drug affinity responsive target stability assay (DARTS) |
| Nc1nc(F)nc2c1ncn2[C@@H]1O[C@H](COP(=O)(O)O)[C@@H](O)[C@@H]1O [P-F-ara-A, fludarabine (P-F-ara-A)] | – | DARTS assays evaluating the efficacy of Remodelin, P-F-ara-A and F-ara-ATP on protecting NAT10 protein against pronase digestion |
